# Measured values: patent publication US8410068B2, “Compounds for the treatment or alleviation of edema, and methods for their use” (Index Pharmaceuticals AB, priority 2007, dated 2013)
# What was measured:
# [1] = tested on: arachidonic acid (AA) induced ear edema; experiment: Arachidonic acid (AA) induced ear edema model; format: in vivo, mice; conditions: for AUC reduction (%) AA: 10 μg one single s.c. injection 20 minutes before AA, compared to PBS control; for Peak reduction (%) AA: 10 μg subcutaneously 20 minutes before induction of edema
# Description: A stock solution of AA was prepared by diluting AA in acetone, 4 mg/10 μL, and was stored frozen at −80° C. A final working solution, 1 mg/10 μL, in acetone was prepared. The working solution was used within one hour after preparation.
# (§1) Both outer ears of a non-anesthetized mouse were washed with mild soap (Palmolive, Sweden) using a soft tooth brush, the ears were dried with tissue and cleaned with tissue soaked with acetone. After allowing the acetone to evaporate, TPA or AA was applied on both sides, 10 μL, on each side of the ear with care to cover the whole ear. The mouse was held for 20 seconds to allow the solvent to evaporate.
# (§2) The ears of non-anesthetized mice were measured at different time points for up to 96 hours after the TPA was administered, or up to 24 hours for the AA model. The first measurements were done before the edema was induced. The thickness was recorded with a spring loaded dial micrometer (Limit, Thickness Gauge, accuracy 0.01 mm, contact area Ø6 mm, Luna AB, Allingsås, Sweden) in triplicates at all time points per ear.
# (§3) The average thickness for both ears on a mouse was calculated and compared to the average thickness of the ears at the starting time point. The value obtained at the start of the experiment was set as 100%. The peak values and area under the curve (AUC) values for the treatment groups were calculated and compared to the inflamed control group, treated with PBS (set as 100%), and expressed as a percentage change (Δ% AUC).
# (§4) Area under the curve (AUC) with base line set as 100 was calculated using GraphPad Prism version 4.03 for Windows (GraphPad Software, San Diego Calif. USA, www.graphpad.com).
# In addition to the experiments done with the control compounds and IDX0001, all other test compounds were investigated in a similar fashion in the TPA and/or AA ear edema models, where the test compounds were given subcutaneously (10 μg) 20 minutes before induction of edema. The results were expressed as reduction of peak value and reduction of area under curve (AUC) in Table 5.
# [2] = tested on: tetradecanoylphorbol 13-acetate (TPA) induced ear edema; experiment: TPA-induced ear edema model; format: in vivo, mice; conditions: for Differences in AUC: Study L dose response; for Reduction of AUC compared to PBS: Study A / FIG. 1, one single injection (i.p. in Study A, s.c. in FIG. 1) 20 min before TPA, day 0; for AUC reduced: Study J; for AUC reduction (%) TPA: 10 μg one single s.c. injection 20 minutes before TPA, compared to PBS control; for Peak reduction (%) TPA: 10 μg subcutaneously 20 minutes before induction of edema
# Description: A stock solution of TPA was prepared by dissolving TPA in DMSO, 1 mg/mL, and was stored frozen at −80° C. For study B-E, a working solution was prepared with 200 μL of the TPA stock solution added to 800 μL acetone. The working solution was used the same day as it was prepared.
# Each cage was identified by a cage card marked with study number, group number, ethical approval number, sex and animal ear numbers. The animals were individually marked on the tail with transverse lines corresponding to the animals' number, using a permanent-ink felt pen. An illustration of the protocols used for the different treatments is outlined in Table 4. The compounds were tested according to the same protocols with necessary modifications.
# Intraperitoneal (i.p.) injections were performed by giving 100 μL in the lower right quadrant of the abdomen. Subcutaneous injections were done with 100 μL in the neck region. Intranasal administration was performed by letting the mouse inhale droplets into the nostrils, total volume 40 μL. All administrations were done on non-anesthetized mice.
# as §1
# Intraperitoneal injections were given in the lower right quadrant of the abdomen with the animal held in a supine position. Subcutaneous (s.c.) injections were given in the neck of the animals. Intranasal administrations were given to mice held in a slightly reclining position. With an adjustable micro-pipette 40 μL of the test substance was given in droplets on the nostrils and the mouse was allowed to aspirate at free will.
# as §2, §3, §4
# AUC reduction and P-values were calculated against the positive control (TPA or AA+PBS).
# [3] = Study B, 100 μg s.c. 4 days before induction of edema
# [4] = Study C (repeat of B), 100 μg s.c. 4 days before induction of edema
# [5] = Study D, 100 μg s.c. 2 days before induction of edema
# [6] = Study E, 100 μg s.c. same day, approx. 20 min before induction
# [7] = Study F, equal doses 50 μg s.c. same day as swelling induced
# [8] = Study G, therapeutic, 100 μg s.c. 2 hours after induction of edema
# [9] = Study H, 100 μg intranasal 4 days before swelling induced
# [10] = Study I, 100 μg intranasal day 0, same day as edema induced
# [11] = therapeutic, 100 μg intranasal 2 hours after induction
molecule,measurement,setting,value
O=C1CCN(c2ccccc2)N1 [Phenidone],reduction of AUC,"[1]; FIG. 4, phenidone given 30 min before AA, IDX0150 given 20 min before AA",−39.1%
"G*G*A*A*C*A*G*T*T*C*G*T*C*C*A*T*G*G*C (as printed in the source, key not given here) [IDX0500]",reduction of AUC,"[2]; Study N, 0.005 μg, one single i.n. (Table 4) day 0",−15%
same,reduction of AUC,"[2]; Study N, 0.01 μg, one single i.n. (Table 4) day 0",−15.3%
same,reduction of AUC,"[2]; Study N, 0.1 μg, one single i.n. (Table 4) day 0",−18.2%
same,reduction of AUC,"[2]; Study N, 1 μg, one single i.n. (Table 4) day 0",−54.1%
same,reduction of AUC,"[2]; Study O, 10 μg given s.c. on day 0 (Table 4: i.n.)",−25.5%
"G*G*A*ACAGTTGCTCCAT*G*G*C (as printed in the source, key not given here) [IDX0526, negative control, having the CpG motif substituted with a GC]",Differences in AUC,"[2]; 0.1 μg, one single i.n. (Table 4) day 0",+1.24%
same,Differences in AUC,"[2]; 100 μg, one single i.n. (Table 4) day 0",+6.18%
same,anti-swelling activity,"[2]; Study L, 0.1-100 μg",no anti-swelling activity
"G*G*G*GAACAGTTCGTCCAT*G*G*C (phosphorothioate linkages, as printed in the source, key not given here) [IDX0955, oligonucleotide used as control; * = phosphorothioate modification]",Reduction of AUC compared to PBS,[2]; 100 μg,−4.8%
same,reduction of AUC,[2]; [3],−22.7%
same,reduction of AUC,[2]; [4],−24.3%
same,reduction of AUC,[2]; [5],−17.8%
same,reduction of AUC,[2]; [6],−17.7%
same,reduction of AUC,[2]; [7],−18.3%
same,reduction of AUC,[2]; [8],−40.7%
same,reduction of AUC,[2]; [9],−17.4%
same,reduction of AUC,[2]; [10],−28.8%
same,AUC reduced,[2]; [11],−17.2%
"G*G*G*GCGTCTGCC*G*G*G (GGGGCGTCTGCCGGG; DNA, linkages s3 o8 s3 (s phosphorothioate, o phosphodiester), methylation of C not given here) [IDX9051, oligonucleotide; * = phosphorothioate modification]",AUC reduction (%) TPA,[2],−54.0%
same,Peak reduction (%) TPA,[2],−29.5%
same,AUC reduction (%) AA,[1],−67.5%
same,Peak reduction (%) AA,[1],−17.7%
T*C*C*A*T*G*A*C*G*T*T*C*C*T*G*A*C*G*T*T [IDX0920],Reduction of AUC compared to PBS,[2]; 50 μg,−22.1%
same,reduction of AUC,"[2]; Study B, 50 μg s.c. 4 days before induction of edema",−19.3%
same,reduction of AUC,"[2]; Study C (repeat of B), 50 μg s.c. 4 days before induction of edema",−3%
same,reduction of AUC,"[2]; Study D, 50 μg s.c. 2 days before induction of edema",−19.1%
same,reduction of AUC,"[2]; Study E, 50 μg s.c. same day, approx. 20 min before induction",−19.4%
same,reduction of AUC,[2]; [7],−17%
same,reduction of AUC,"[2]; Study G, therapeutic, 50 μg s.c. 2 hours after induction of edema",−43.8%
same,reduction of AUC,"[2]; Study H, 50 μg intranasal 4 days before swelling induced",−33.8%
same,reduction of AUC,"[2]; Study I, 50 μg intranasal day 0, same day as edema induced",−27.3%
same,AUC reduced,"[2]; therapeutic, 50 μg intranasal 2 hours after induction",−28.7%
"T*C*C*ATGGTCAGGGTCCCGG*G*G*G (TCCATGGTCAGGGTCCCGGGGG; DNA, linkages s3 o15 s3 (s phosphorothioate, o phosphodiester), methylation of C not given here) [IDX9064, oligonucleotide; * = phosphorothioate modification]",AUC reduction (%) TPA,[2],−59.7%
same,Peak reduction (%) TPA,[2],−41.7%
"T*C*C*CAAGATCGTCC*A*G*G (phosphorothioate linkages, as printed in the source, key not given here) [IDX9076, oligonucleotide; * = phosphorothioate modification]",AUC reduction (%) TPA,[2],−5.1%
same,Peak reduction (%) TPA,[2],−2.6%
same,AUC reduction (%) AA,[1],−45.7%
same,Peak reduction (%) AA,[1],−20.1%
"T*C*C*GATCGTCC*A*G*G (TCCGATCGTCCAGG; DNA, linkages s3 o7 s3 (s phosphorothioate, o phosphodiester), methylation of C not given here) [IDX9078]",AUC reduction (%) TPA,[2],−41.3%
same,Peak reduction (%) TPA,[2],−26.1%
same,AUC reduction (%) AA,[1],−79.4%
same,Peak reduction (%) AA,[1],−16.4%
"T*C*C*GCGTTCGGCCTCCTGGCG*C*G*G (phosphorothioate linkages, as printed in the source, key not given here) [IDX0001, oligonucleotide; * = phosphorothioate modification]",Reduction of AUC compared to PBS,[2]; 100 μg,−15.7%
same,reduction of AUC,[2]; [3],−16.3%
same,reduction of AUC,[2]; [4],−17.9%
same,reduction of AUC,[2]; [5],−12.4%
same,reduction of AUC,[2]; [6],−16.7%
same,reduction of AUC,[2]; [7],−13.2%
same,reduction of AUC,[2]; [8],−17.9%
same,reduction of AUC,[2]; [9],−25.7%
same,reduction of AUC,[2]; [10],−6.4%
same,AUC reduced,[2]; [11],−25.2%
"T*C*G*TCTGCTTAGTTCGTTA*G*T*T (TCGTCTGCTTAGTTCGTTAGTT; DNA, linkages s3 o15 s3 (s phosphorothioate, o phosphodiester), methylation of C not given here) [IDX9087]",AUC reduction (%) TPA,[2],−40.2%
same,Peak reduction (%) TPA,[2],+0.9%
"T*G*C*CATTCGTCGTTCTCGTC*G*T*T (phosphorothioate linkages, as printed in the source, key not given here) [IDX9024, oligonucleotide; * = phosphorothioate modification]",AUC reduction (%) TPA,[2],−47.3%
same,Peak reduction (%) TPA,[2],−30.9%
same,AUC reduction (%) AA,[1],−58.5%
same,Peak reduction (%) AA,[1],−14.4%
